Counter-ions that a name gives are not always drawn.
Assay: Phase 1 dose escalation study: safety, treatment related AEs
Assay type: in vivo
Procedure: The subjects were 40-75 years old with BMI of 18.0-30 kg/m^2. Subjects having evidence of clinically relevant pathology, increased risk of stroke or of history venous thromboembolic events, or use of concomitant medication less than 14 days prior to admission to clinical research center (paracetamol allowed up to 3 days prior) were excluded.
The subjects were treated with placebo or at least one dose p.o., q.d. after a light breakfast for 7 days at dose levels of 200 mg, 500 mg, 750 mg and 1000 mg, respectively.

[1] = 200 to 1000 mg p.o., q.d., 7 days

CCNCCc1ccc(CN(CC)c2cc(OC)ccc2[C@@H]2CCc3cc(O)ccc3C2)cc1 [RAD1901, (6R)-6-(2-(N-(4-(2-(ethylamino)ethyl)benzyl)-N-ethylamino)-4-methoxyphenyl)-5,6,7,8-tetrahydronaphthalen-2-ol dihydrochloride]
Abdominal distension (treatment related AE) (750 mg, Gr3): 0 n(%) | Abdominal pain (treatment related AE) (750 mg, Gr3): 0 n(%) | Diarrhoea (treatment related AE) (750 mg, Gr3): 0 n(%) | Dizziness (treatment related AE) (750 mg, Gr3): 0 n(%) | Dyspepsia (treatment related AE) (750 mg, Gr3): 0 n(%) | Dysphagia (treatment related AE) (750 mg, Gr3): 0 n(%) | Flatulance (treatment related AE) (750 mg, Gr3): 0 n(%) | Headache (treatment related AE) (750 mg, Gr3): 0 n(%) | Hiccups (treatment related AE) (750 mg, Gr3): 0 n(%) | Hot flush (treatment related AE) (750 mg, Gr3): 0 n(%) | Myalgia (treatment related AE) (750 mg, Gr3): 0 n(%) | Nausea (treatment related AE) (750 mg, Gr3): 0 n(%) | Odynophagia (treatment related AE) (750 mg, Gr3): 0 n(%) | Oesophageal pain (treatment related AE) (750 mg, Gr3): 0 n(%) | Salivary hypersecretion (treatment related AE) (750 mg, Gr3): 0 n(%) | Sensation of a foreign body (treatment related AE) (750 mg, Gr3): 0 n(%) | Vomiting (treatment related AE) (750 mg, Gr3): 0 n(%) | Abdominal discomfort (treatment related AE) (1000 mg, Gr1): 0 n(%) | Abdominal distension (treatment related AE) (1000 mg, Gr1): 2 (29) n(%) | Abdominal pain (treatment related AE) (1000 mg, Gr1): 1 (14) n(%) | Diarrhoea (treatment related AE) (1000 mg, Gr1): 3 (43) n(%) | Dizziness (treatment related AE) (1000 mg, Gr1): 1 (14) n(%) | Dyspepsia (treatment related AE) (1000 mg, Gr1): 1 (14) n(%) | Dysphagia (treatment related AE) (1000 mg, Gr1): 0 n(%) | Flatulance (treatment related AE) (1000 mg, Gr1): 0 n(%) | Headache (treatment related AE) (1000 mg, Gr1): 2 (29) n(%) | Hiccups (treatment related AE) (1000 mg, Gr1): 2 (29) n(%) | Hot flush (treatment related AE) (1000 mg, Gr1): 1 (14) n(%) | Myalgia (treatment related AE) (1000 mg, Gr1): 0 n(%) | Nausea (treatment related AE) (1000 mg, Gr1): 4 (57) n(%) | Odynophagia (treatment related AE) (1000 mg, Gr1): 1 (14) n(%) | Oesophageal pain (treatment related AE) (1000 mg, Gr1): 1 (14) n(%) | Salivary hypersecretion (treatment related AE) (1000 mg, Gr1): 2 (29) n(%) | Sensation of a foreign body (treatment related AE) (1000 mg, Gr1): 4 (57) n(%) | Vomiting (treatment related AE) (1000 mg, Gr1): 0 n(%) | Abdominal discomfort (treatment related AE) (1000 mg, Gr2): 0 n(%) | Abdominal distension (treatment related AE) (1000 mg, Gr2): 0 n(%) | Abdominal pain (treatment related AE) (1000 mg, Gr2): 1 n(%) | Diarrhoea (treatment related AE) (1000 mg, Gr2): 1 n(%) | Dizziness (treatment related AE) (1000 mg, Gr2): 0 n(%) | Dyspepsia (treatment related AE) (1000 mg, Gr2): 1 n(%) | Dysphagia (treatment related AE) (1000 mg, Gr2): 0 n(%) | Flatulance (treatment related AE) (1000 mg, Gr2): 0 n(%) | Headache (treatment related AE) (1000 mg, Gr2): 0 n(%) | Hiccups (treatment related AE) (1000 mg, Gr2): 0 n(%) | Hot flush (treatment related AE) (1000 mg, Gr2): 0 n(%) | Myalgia (treatment related AE) (1000 mg, Gr2): 0 n(%) | Nausea (treatment related AE) (1000 mg, Gr2): 2 n(%) | Odynophagia (treatment related AE) (1000 mg, Gr2): 1 n(%) | Oesophageal pain (treatment related AE) (1000 mg, Gr2): 1 n(%) | Salivary hypersecretion (treatment related AE) (1000 mg, Gr2): 0 n(%) | Sensation of a foreign body (treatment related AE) (1000 mg, Gr2): 0 n(%) | Vomiting (treatment related AE) (1000 mg, Gr2): 3 n(%) | Abdominal discomfort (treatment related AE) (1000 mg, Gr3): 0 n(%) | Abdominal distension (treatment related AE) (1000 mg, Gr3): 0 n(%) | Abdominal pain (treatment related AE) (1000 mg, Gr3): 0 n(%) | Diarrhoea (treatment related AE) (1000 mg, Gr3): 0 n(%) | Dizziness (treatment related AE) (1000 mg, Gr3): 0 n(%) | Dyspepsia (treatment related AE) (1000 mg, Gr3): 0 n(%) | Dysphagia (treatment related AE) (1000 mg, Gr3): 0 n(%) | Flatulance (treatment related AE) (1000 mg, Gr3): 0 n(%) | Headache (treatment related AE) (1000 mg, Gr3): 0 n(%) | Hiccups (treatment related AE) (1000 mg, Gr3): 0 n(%) | Hot flush (treatment related AE) (1000 mg, Gr3): 0 n(%) | Myalgia (treatment related AE) (1000 mg, Gr3): 0 n(%) | Nausea (treatment related AE) (1000 mg, Gr3): 0 n(%) | Odynophagia (treatment related AE) (1000 mg, Gr3): 0 n(%) | Oesophageal pain (treatment related AE) (1000 mg, Gr3): 1 n(%) | Salivary hypersecretion (treatment related AE) (1000 mg, Gr3): 0 n(%) | Sensation of a foreign body (treatment related AE) (1000 mg, Gr3): 0 n(%) | Vomiting (treatment related AE) (1000 mg, Gr3): 0 n(%) | dose limiting toxicities (in words) [1]: No dose limiting toxicities (DLT) were observed | maximum tolerated dose (MTD) (in words) [1]: not established | Abdominal discomfort (treatment related AE) (Total Active, Gr1): 4 n(%) | Abdominal distension (treatment related AE) (Total Active, Gr1): 5 n(%) | Abdominal pain (treatment related AE) (Total Active, Gr1): 7 n(%) | Diarrhoea (treatment related AE) (Total Active, Gr1): 6 n(%) | Dizziness (treatment related AE) (Total Active, Gr1): 5 n(%) | Dyspepsia (treatment related AE) (Total Active, Gr1): 13 n(%) | Dysphagia (treatment related AE) (Total Active, Gr1): 4 n(%) | Flatulance (treatment related AE) (Total Active, Gr1): 5 n(%) | Headache (treatment related AE) (Total Active, Gr1): 9 n(%) | Hiccups (treatment related AE) (Total Active, Gr1): 9 n(%) | Hot flush (treatment related AE) (Total Active, Gr1): 11 n(%) | Myalgia (treatment related AE) (Total Active, Gr1): 3 n(%) | Nausea (treatment related AE) (Total Active, Gr1): 14 n(%) | Odynophagia (treatment related AE) (Total Active, Gr1): 4 n(%) | Oesophageal pain (treatment related AE) (Total Active, Gr1): 3 n(%) | Salivary hypersecretion (treatment related AE) (Total Active, Gr1): 8 n(%) | Sensation of a foreign body (treatment related AE) (Total Active, Gr1): 7 n(%) | Vomiting (treatment related AE) (Total Active, Gr1): 3 n(%) | Abdominal discomfort (treatment related AE) (Total Active, Gr2): 1 n(%) | Abdominal distension (treatment related AE) (Total Active, Gr2): 1 n(%) | Abdominal pain (treatment related AE) (Total Active, Gr2): 3 n(%) | Diarrhoea (treatment related AE) (Total Active, Gr2): 1 n(%) | Dizziness (treatment related AE) (Total Active, Gr2): 0 n(%) | Dyspepsia (treatment related AE) (Total Active, Gr2): 3 n(%) | Dysphagia (treatment related AE) (Total Active, Gr2): 3 n(%) | Flatulance (treatment related AE) (Total Active, Gr2): 0 n(%) | Headache (treatment related AE) (Total Active, Gr2): 1 n(%) | Hiccups (treatment related AE) (Total Active, Gr2): 0 n(%) | Hot flush (treatment related AE) (Total Active, Gr2): 0 n(%) | Myalgia (treatment related AE) (Total Active, Gr2): 2 n(%) | Nausea (treatment related AE) (Total Active, Gr2): 5 n(%) | Odynophagia (treatment related AE) (Total Active, Gr2): 2 n(%) | Oesophageal pain (treatment related AE) (Total Active, Gr2): 6 n(%) | Salivary hypersecretion (treatment related AE) (Total Active, Gr2): 0 n(%) | Sensation of a foreign body (treatment related AE) (Total Active, Gr2): 0 n(%) | Vomiting (treatment related AE) (Total Active, Gr2): 10 n(%) | Abdominal discomfort (treatment related AE) (Total Active, Gr3): 0 n(%) | Abdominal distension (treatment related AE) (Total Active, Gr3): 0 n(%) | Abdominal pain (treatment related AE) (Total Active, Gr3): 0 n(%) | Diarrhoea (treatment related AE) (Total Active, Gr3): 0 n(%) | Dizziness (treatment related AE) (Total Active, Gr3): 0 n(%) | Dyspepsia (treatment related AE) (Total Active, Gr3): 0 n(%) | Dysphagia (treatment related AE) (Total Active, Gr3): 0 n(%) | Flatulance (treatment related AE) (Total Active, Gr3): 0 n(%) | Headache (treatment related AE) (Total Active, Gr3): 0 n(%) | Hiccups (treatment related AE) (Total Active, Gr3): 0 n(%) | Hot flush (treatment related AE) (Total Active, Gr3): 0 n(%) | Myalgia (treatment related AE) (Total Active, Gr3): 0 n(%) | Nausea (treatment related AE) (Total Active, Gr3): 0 n(%) | Odynophagia (treatment related AE) (Total Active, Gr3): 0 n(%) | Oesophageal pain (treatment related AE) (Total Active, Gr3): 1 n(%) | Salivary hypersecretion (treatment related AE) (Total Active, Gr3): 0 n(%) | Sensation of a foreign body (treatment related AE) (Total Active, Gr3): 0 n(%) | Vomiting (treatment related AE) (Total Active, Gr3): 1 n(%) | Abdominal discomfort (treatment related AE) (Total TEAE, All): 5 (11) | Abdominal distension (treatment related AE) (Total TEAE, All): 6 (14) | Abdominal pain (treatment related AE) (Total TEAE, All): 10 (23) | Diarrhoea (treatment related AE) (Total TEAE, All): 7 (16) | Dizziness (treatment related AE) (Total TEAE, All): 5 (11) | Dyspepsia (treatment related AE) (Total TEAE, All): 16 (36) | Dysphagia (treatment related AE) (Total TEAE, All): 7 (16) | Flatulance (treatment related AE) (Total TEAE, All): 5 (11) | Headache (treatment related AE) (Total TEAE, All): 10 (23) | Hiccups (treatment related AE) (Total TEAE, All): 9 (20) | Hot flush (treatment related AE) (Total TEAE, All): 11 (25) | Myalgia (treatment related AE) (Total TEAE, All): 5 (11) | Nausea (treatment related AE) (Total TEAE, All): 19 (43) | Odynophagia (treatment related AE) (Total TEAE, All): 6 (14) | Oesophageal pain (treatment related AE) (Total TEAE, All): 10 (23) | Salivary hypersecretion (treatment related AE) (Total TEAE, All): 8 (18) | Sensation of a foreign body (treatment related AE) (Total TEAE, All): 7 (16) | Vomiting (treatment related AE) (Total TEAE, All): 14 (32)

Reference: patent publication US12582617B2, “Methods for treating cancer” (RADIUS PHARMACEUTICALS, INC., priority 2015, dated 2026)
